From patent US8138194B2, “Fused bicyclic pyrimidine compounds as aurora kinase inhibitors” (National Health Research Institutes, priority 2008, dated 2012)
Where “and” joins values, the source holds several entries; their conditions need not be identical. Equal values may be shown once.

Experiments:
PDGFRB = PDGFRB (Homo sapiens, UniProt P09619); experiment: Inhibition of other protein kinases: PDGFRB; assay type: biochemical
[1] = molecular target: T1, GST-tAurora A (123-401aa) fusion protein (Homo sapiens, UniProt O14965); experiment: Aurora Kinase A luminescent kinase assay; assay type: biochemical; details: IC50 (concentration of a test compound at which activity of 50% of Aurora A is inhibited)
T1 construct: GST-tAurora A (123-401aa) fusion protein; made in house; host or cells: Sf9 insect cells (baculovirus, pBacPAK8)
T1 sequence (O14965 123-401): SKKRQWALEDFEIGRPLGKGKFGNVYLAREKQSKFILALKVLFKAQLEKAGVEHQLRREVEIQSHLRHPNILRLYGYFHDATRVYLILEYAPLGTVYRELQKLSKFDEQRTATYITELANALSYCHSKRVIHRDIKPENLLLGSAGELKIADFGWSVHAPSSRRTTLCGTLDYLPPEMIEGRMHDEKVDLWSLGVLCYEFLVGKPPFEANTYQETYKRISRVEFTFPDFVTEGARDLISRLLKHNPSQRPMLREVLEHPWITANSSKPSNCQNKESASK

HCT-116 cells = experiment: HCT-116 cell viability MTS assay; assay type: cell-based; details: Homo sapiens, read-out: IC50 (concentration of a test compound which causes 50% of the cell death); HCT-116, 96-h incubation, MTS
Method: HCT-116 cell viability was examined by the MTS assay (Promega, Madison, Wis., USA). 2000 HCT-116 cells in 100 μL McCoy's 5a medium were seeded in each well of a 96-well plate. After 96-h incubation with a test compound, the cells were incubated with 20 μL of a MTS/PMS mixture (MTS/PMS ratio: 20: 1) for 2 h at 37° C. in a humidified incubator with 5% CO2 to allow viable cells to convert the tetrazolium salt (MTS) into formazan. The amount/concentration of formazan, which indicates the number of live cells, was determined by measuring the absorbance at 490 nm using a PerkinElmer Victor2 plate reader (PerkinElmer, Shelton, Cont., USA).

FLT3 = molecular target: T2, FLT3 (Homo sapiens, UniProt P36888); experiment: Inhibition of other protein kinases: FLT3; assay type: biochemical
T2 sequence (P36888 27-993): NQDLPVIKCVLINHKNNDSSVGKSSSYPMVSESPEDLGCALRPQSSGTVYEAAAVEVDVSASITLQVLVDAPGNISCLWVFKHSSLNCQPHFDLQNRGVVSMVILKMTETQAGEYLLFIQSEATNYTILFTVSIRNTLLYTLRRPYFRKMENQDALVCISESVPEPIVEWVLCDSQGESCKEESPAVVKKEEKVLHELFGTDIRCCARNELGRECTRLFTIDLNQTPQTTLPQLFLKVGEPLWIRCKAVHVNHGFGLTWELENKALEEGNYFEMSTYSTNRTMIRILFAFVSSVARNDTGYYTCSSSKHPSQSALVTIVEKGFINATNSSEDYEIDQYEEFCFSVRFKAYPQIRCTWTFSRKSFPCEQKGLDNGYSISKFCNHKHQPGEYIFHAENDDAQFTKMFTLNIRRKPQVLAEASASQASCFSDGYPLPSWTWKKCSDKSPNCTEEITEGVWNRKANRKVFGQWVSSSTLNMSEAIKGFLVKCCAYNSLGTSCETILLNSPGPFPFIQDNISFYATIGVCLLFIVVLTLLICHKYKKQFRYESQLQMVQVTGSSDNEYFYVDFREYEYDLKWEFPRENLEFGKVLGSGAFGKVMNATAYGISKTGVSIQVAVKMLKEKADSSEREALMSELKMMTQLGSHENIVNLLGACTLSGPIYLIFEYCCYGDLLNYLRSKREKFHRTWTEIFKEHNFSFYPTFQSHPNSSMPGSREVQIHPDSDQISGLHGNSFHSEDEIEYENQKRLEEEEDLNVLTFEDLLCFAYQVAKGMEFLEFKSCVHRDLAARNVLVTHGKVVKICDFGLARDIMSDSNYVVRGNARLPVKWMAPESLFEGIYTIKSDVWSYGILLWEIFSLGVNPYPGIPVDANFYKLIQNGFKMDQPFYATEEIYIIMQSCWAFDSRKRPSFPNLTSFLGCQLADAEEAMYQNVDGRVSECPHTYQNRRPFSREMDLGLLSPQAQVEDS

PLK4 = molecular target: T3, PLK4 (Homo sapiens, UniProt O00444); experiment: Inhibition of other protein kinases: PLK4; assay type: biochemical
T3 sequence (O00444 1-970): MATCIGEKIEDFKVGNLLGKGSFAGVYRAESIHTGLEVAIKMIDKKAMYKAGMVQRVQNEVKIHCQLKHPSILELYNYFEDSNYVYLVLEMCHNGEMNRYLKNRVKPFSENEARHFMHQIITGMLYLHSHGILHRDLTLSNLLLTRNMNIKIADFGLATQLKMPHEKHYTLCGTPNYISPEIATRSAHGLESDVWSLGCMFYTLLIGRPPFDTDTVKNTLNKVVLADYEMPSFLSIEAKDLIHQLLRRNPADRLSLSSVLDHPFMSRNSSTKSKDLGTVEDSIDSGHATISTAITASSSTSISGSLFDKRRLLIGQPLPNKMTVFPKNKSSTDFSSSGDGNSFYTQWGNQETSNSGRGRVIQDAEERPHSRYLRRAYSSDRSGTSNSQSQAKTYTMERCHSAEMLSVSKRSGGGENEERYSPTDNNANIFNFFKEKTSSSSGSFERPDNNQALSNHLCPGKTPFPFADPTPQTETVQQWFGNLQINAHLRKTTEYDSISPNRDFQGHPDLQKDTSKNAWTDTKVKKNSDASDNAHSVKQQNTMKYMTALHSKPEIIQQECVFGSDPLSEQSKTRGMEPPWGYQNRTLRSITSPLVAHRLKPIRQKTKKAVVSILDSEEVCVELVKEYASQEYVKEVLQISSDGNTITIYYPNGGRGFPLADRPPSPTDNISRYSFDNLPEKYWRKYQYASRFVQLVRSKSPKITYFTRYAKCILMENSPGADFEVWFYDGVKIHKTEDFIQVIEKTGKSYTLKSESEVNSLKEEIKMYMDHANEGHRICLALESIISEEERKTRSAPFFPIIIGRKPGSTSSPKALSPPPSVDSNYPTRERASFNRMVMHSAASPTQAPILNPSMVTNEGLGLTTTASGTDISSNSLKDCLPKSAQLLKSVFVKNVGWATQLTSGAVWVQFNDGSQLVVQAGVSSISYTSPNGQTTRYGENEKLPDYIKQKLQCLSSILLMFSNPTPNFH

Chain of PDGFRB (P09619 33-1106, species assumed): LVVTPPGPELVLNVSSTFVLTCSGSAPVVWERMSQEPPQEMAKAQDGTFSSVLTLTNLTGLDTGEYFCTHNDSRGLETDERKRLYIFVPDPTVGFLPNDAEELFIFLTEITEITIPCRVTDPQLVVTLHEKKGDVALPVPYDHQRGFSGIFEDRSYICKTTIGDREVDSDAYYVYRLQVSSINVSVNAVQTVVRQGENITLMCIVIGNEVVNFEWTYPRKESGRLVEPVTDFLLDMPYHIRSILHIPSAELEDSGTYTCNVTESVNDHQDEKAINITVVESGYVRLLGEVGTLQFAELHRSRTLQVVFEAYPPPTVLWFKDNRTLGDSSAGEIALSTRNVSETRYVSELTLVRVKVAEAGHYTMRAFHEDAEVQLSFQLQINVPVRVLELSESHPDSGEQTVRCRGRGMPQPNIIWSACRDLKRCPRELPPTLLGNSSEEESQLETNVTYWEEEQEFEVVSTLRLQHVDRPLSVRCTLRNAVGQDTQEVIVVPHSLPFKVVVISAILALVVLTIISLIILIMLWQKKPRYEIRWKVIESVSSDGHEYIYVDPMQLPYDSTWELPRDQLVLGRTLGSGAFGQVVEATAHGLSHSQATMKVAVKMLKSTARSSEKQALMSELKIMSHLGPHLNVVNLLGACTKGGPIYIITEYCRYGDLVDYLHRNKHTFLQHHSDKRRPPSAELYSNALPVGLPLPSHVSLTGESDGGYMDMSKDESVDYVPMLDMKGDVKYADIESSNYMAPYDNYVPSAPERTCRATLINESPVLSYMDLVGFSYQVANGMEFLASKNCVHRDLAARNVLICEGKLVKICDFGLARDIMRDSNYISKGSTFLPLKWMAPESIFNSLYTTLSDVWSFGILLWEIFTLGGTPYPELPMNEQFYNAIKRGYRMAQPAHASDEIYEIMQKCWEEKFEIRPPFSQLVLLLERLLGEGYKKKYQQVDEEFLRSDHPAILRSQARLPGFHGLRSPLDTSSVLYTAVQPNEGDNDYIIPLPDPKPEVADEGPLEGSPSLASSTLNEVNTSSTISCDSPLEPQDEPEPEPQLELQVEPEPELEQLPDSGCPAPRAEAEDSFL

O=C(Nc1ccccc1)Nc1ccc(CCNc2ncnc3oc(-c4ccccc4)c(Cl)c23)cc1 [Compound 82]
inhibits the activity of PDGFRB (PDGFRB): inhibits | IC50 [1]: 45 to 400 nM and < 1000 nM | IC50 (HCT-116 cells): 100 to 900 nM | inhibits the activity of FLT3 (FLT3): inhibits | inhibits the activity of PLK4 (PLK4): inhibits
